Measurements reported in patent US9302999B2, “Substituted triazoles as herbicides” (E. I. DU PONT DE NEMOURS AND COMPANY, priority 2012, dated 2016).

Key:
Format in all cases: in vivo
[1] = system: nutsedge, yellow (yellow nutsedge, Cyperus esculentus); test: Test C pre-/postemergence: nutsedge, yellow
Procedure, shortened: (§1)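 Visual injury scored 0–100 (100 = complete control) against untreated controls after 13–15 greenhouse days. Surfactant-containing solvent formulations applied either to soil after sowing (loam/sand) or over 1- to 4-leaf plants, 2–18 cm tall.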

[2] = system: lambsquarters (Chenopodium album); test: Test C pre-/postemergence: lambsquarters
Procedure, shortened: as §1

[3] = system: blackgrass (Alopecurus myosuroides); test: Test C pre-/postemergence: blackgrass
Procedure, shortened: as §1

[4] = system: foxtail, giant (giant foxtail, Setaria faberii); test: Test C pre-/postemergence: foxtail, giant
Procedure, shortened: as §1

[5] = system: crabgrass, large (large crabgrass, Digitaria sanguinalis); test: Test A pre-/postemergence: crabgrass, large
Procedure, shortened: (§2)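 Compounds, formulated with surfactant in non-phytotoxic solvent, were applied as a directed soil spray preemergence and as postemergence sprays to 2–10 cm, one- to two-leaf seedlings grown in loam soil blended with sand; visual injury, 0–100, assessed ~10 days post-treatment against untreated controls.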

[6] = system: wheat (Triticum aestivum); test: Test A pre-/postemergence: wheat
Procedure, shortened: as §2

[7] = system: large crabgrass (Digitaria sanguinalis); test: Test C pre-/postemergence: large crabgrass
Procedure, shortened: as §1

[8] = system: pigweed (Amaranthus retroflexus); test: Test A pre-/postemergence: pigweed
Procedure, shortened: as §2

corn (Zea mays) = test: Test C pre-/postemergence: corn
Procedure, shortened: as §1

[9] = system: morningglory (Ipomoea coccinea); test: Test C pre-/postemergence: morningglory
Procedure, shortened: as §1

[10] = system: barnyardgrass (Echinochloa crus-galli); test: Test A pre-/postemergence: barnyardgrass
Procedure, shortened: as §2

[11] = Postemergence, 31 g ai/ha, scale 0 to 100 (0 no effect, 100 complete control)
[12] = Postemergence, 62 g ai/ha, scale 0 to 100 (0 no effect, 100 complete control)
[13] = Postemergence, 125 g ai/ha, scale 0 to 100, 0 no effect, 100 complete control
[14] = Postemergence, 250 g ai/ha, scale 0 to 100 (0 no effect, 100 complete control)
[15] = Preemergence, 31 g ai/ha, scale 0 (no effect) to 100 (complete control)
[16] = Preemergence, 62 g ai/ha, scale of 0 to 100, 0 is no effect, 100 is complete control
[17] = Preemergence, 125 g ai/ha, scale 0 to 100, 0 no effect, 100 complete control
[18] = Preemergence, 250 g ai/ha, scale 0 to 100, 0 no effect, 100 complete control
[19] = Postemergence, 250 g ai/ha, scale 0 to 100
[20] = Postemergence, 125 g ai/ha, 0 to 100 scale, 0 is no effect, 100 is complete control
[21] = Postemergence, 500 g ai/ha, 0 to 100 scale, 0 is no effect, 100 is complete control
[22] = Preemergence, 125 g ai/ha, 0 to 100 scale where 0 is no effect and 100 is complete control
[23] = Preemergence, 500 g ai/ha, 0 to 100 scale (0 no effect, 100 complete control)
[24] = Preemergence, 31 g ai/ha, scale of 0 to 100, 0 is no effect, 100 is complete control
[25] = Preemergence, 62 g ai/ha, scale 0 to 100, 0 no effect, 100 complete control
[26] = Postemergence, 500 g ai/ha, visual rating on 0 to 100 scale (0 no effect, 100 complete control), approximately ten days
[27] = Preemergence, 125 g ai/ha, 0 to 100 scale (0 no effect, 100 complete control)
[28] = Preemergence, 500 g ai/ha, 0 to 100 scale, 0 is no effect, 100 is complete control

CCc1nn(-c2ccc(C(F)(F)F)c(F)c2)nc1Oc1ccnc(C(F)(F)F)c1 [Compound 183]
5: Plant response rating, Nutsedge, Yellow [1, 17] | Plant response rating, Nutsedge, Yellow [1, 18]
98: Plant response rating, Lambsquarters [2, 14] | Plant response rating, Morningglory [9, 11] | Plant response rating, Morningglory [9, 12]
35: Plant response rating, Crabgrass, Large [7, 12] | Plant response rating, Crabgrass, Large [7, 13]
15: Plant response rating, Corn (corn (Zea mays); [15]) | Plant response rating, Corn (corn (Zea mays); [16])
65: Plant response rating, Foxtail, Giant [4, 13]
45: Plant response rating, Foxtail, Giant [4, 11] | Plant response rating, Foxtail, Giant [4, 12] | Plant response rating, Morningglory [9, 16]
25: Plant response rating, Crabgrass, Large [7, 11]
80: Plant response rating, Lambsquarters [2, 15] | Plant response rating, Blackgrass [3, 15] | Plant response rating, Barnyardgrass [10, 20]
10: Plant response rating, Nutsedge, Yellow [1, 11] | Plant response rating, Nutsedge, Yellow [1, 12] | Plant response rating, Nutsedge, Yellow [1, 13] | Plant response rating, Nutsedge, Yellow [1, 14] | Plant response rating, Blackgrass [3, 11] | Plant response rating, Corn (corn (Zea mays); [11])
100: Plant response rating, Lambsquarters [2, 16] | Plant response rating, Lambsquarters [2, 17] | Plant response rating, Lambsquarters [2, 18] | Plant response rating, Blackgrass [3, 18] | Plant response rating, Foxtail, Giant [4, 15] | Plant response rating, Foxtail, Giant [4, 16] | Plant response rating, Foxtail, Giant [4, 17] | Plant response rating, Foxtail, Giant [4, 18] | Plant response rating, Crabgrass, Large [5, 22] | Plant response rating, Crabgrass, Large [5, 23] | Plant response rating, Crabgrass, Large [7, 15] | Plant response rating, Crabgrass, Large [7, 16] | Plant response rating, Crabgrass, Large [7, 17] | Plant response rating, Crabgrass, Large [7, 18] | Plant response rating, Pigweed [8, 20] | Pigweed plant response rating [8, 21] | Plant response rating, Pigweed [8, 22] | Plant response rating, Pigweed [8, 23] | Plant response rating, Morningglory [9, 13] | Plant response rating, Morningglory [9, 14] | Plant response rating, Barnyardgrass [10, 23]
90: Plant response rating, Crabgrass, Large [5, 20] | Crabgrass, Large plant response rating [5, 21] | Barnyardgrass plant response rating [10, 21] | Plant response rating, Barnyardgrass [10, 22]
85: Plant response rating, Lambsquarters [2, 11] | Plant response rating, Foxtail, Giant [4, 19] | Plant response rating, Crabgrass, Large [7, 19]
40: Wheat plant response rating [6, 21] | Plant response rating, Corn (corn (Zea mays); [17]) | Plant response rating, Corn (corn (Zea mays); [18])
60: Plant response rating, Blackgrass [3, 13] | Plant response rating, Blackgrass [3, 19] | Plant response rating, Wheat [6, 23]
0: Plant response rating, Nutsedge, Yellow [1, 15] | Plant response rating, Nutsedge, Yellow [1, 16]
70: Plant response rating, Morningglory [9, 17]
95: Plant response rating, Lambsquarters [2, 12] | Plant response rating, Lambsquarters [2, 13] | Plant response rating, Blackgrass [3, 16] | Plant response rating, Blackgrass [3, 17] | Plant response rating, Morningglory [9, 18]
20: Plant response rating, Blackgrass [3, 12] | Plant response rating, Corn (corn (Zea mays); [12])
30: Plant response rating, Wheat [6, 20] | Plant response rating, Wheat [6, 22] | Plant response rating, Corn (corn (Zea mays); [19]) | Plant response rating, Morningglory [9, 15]

Cc1nn(-c2ccc(C(F)(F)F)cn2)nc1Oc1ccnc(C(F)(F)F)c1 [Compound 23]
35: Plant response rating, Nutsedge, Yellow [1, 17] | Plant response rating, Crabgrass, Large [7, 19]
40: Plant response rating, Lambsquarters [2, 11] | Plant response rating, Lambsquarters [2, 12]
50: Wheat plant response rating [6, 26]
100: Plant response rating, Lambsquarters [2, 18] | Plant response rating, Blackgrass [3, 17] | Plant response rating, Blackgrass [3, 18] | Plant response rating, Foxtail, Giant [4, 16] | Plant response rating, Foxtail, Giant [4, 17] | Plant response rating, Foxtail, Giant [4, 18] | Plant response rating, Crabgrass, Large [5, 27] | Plant response rating, Crabgrass, Large [5, 28] | Plant response rating, Crabgrass, Large [7, 24] | Plant response rating, Crabgrass, Large [7, 16] | Plant response rating, Crabgrass, Large [7, 17] | Plant response rating, Crabgrass, Large [7, 18] | Pigweed plant response rating [8, 20] | Pigweed plant response rating [8, 26] | Plant response rating, Pigweed [8, 27] | Plant response rating, Pigweed [8, 28] | Plant response rating, Morningglory [9, 17] | Plant response rating, Morningglory [9, 18] | Plant response rating, Barnyardgrass [10, 28]
30: Plant response rating, Corn (corn (Zea mays); [19]) | Plant response rating, Corn (corn (Zea mays); [25])
25: Plant response rating, Blackgrass [3, 19] | Plant response rating, Foxtail, Giant [4, 19] | Plant response rating, Crabgrass, Large [7, 13]
10: Plant response rating, Nutsedge, Yellow [1, 11] | Plant response rating, Nutsedge, Yellow [1, 12] | Plant response rating, Nutsedge, Yellow [1, 13] | Plant response rating, Nutsedge, Yellow [1, 19] | Plant response rating, Nutsedge, Yellow [1, 16] | Plant response rating, Crabgrass, Large [7, 11] | Plant response rating, Corn (corn (Zea mays); [11])
95: Plant response rating, Lambsquarters [2, 24]
0: Plant response rating, Wheat [6, 27]
5: Plant response rating, Nutsedge, Yellow [1, 24] | Plant response rating, Blackgrass [3, 24] | Plant response rating, Corn (corn (Zea mays); [24])
70: Plant response rating, Wheat [6, 28] | Plant response rating, Corn (corn (Zea mays); [17]) | Plant response rating, Morningglory [9, 11] | Plant response rating, Morningglory [9, 12] | Barnyardgrass plant response rating [10, 20] | Plant response rating, Barnyardgrass [10, 27]
20: Plant response rating, Blackgrass [3, 12] | Plant response rating, Blackgrass [3, 13] | Wheat plant response rating [6, 20] | Plant response rating, Corn (corn (Zea mays); [13]) | Plant response rating, Morningglory [9, 24] | Plant response rating, Morningglory [9, 16]
98: Plant response rating, Lambsquarters [2, 13] | Plant response rating, Lambsquarters [2, 19] | Plant response rating, Lambsquarters [2, 16] | Plant response rating, Lambsquarters [2, 17] | Plant response rating, Foxtail, Giant [4, 24]
15: Plant response rating, Blackgrass [3, 11] | Plant response rating, Foxtail, Giant [4, 11] | Plant response rating, Foxtail, Giant [4, 12] | Plant response rating, Foxtail, Giant [4, 13] | Plant response rating, Crabgrass, Large [7, 12] | Plant response rating, Corn (corn (Zea mays); [12])
90: Crabgrass, Large plant response rating [5, 20] | Crabgrass, Large plant response rating [5, 26] | Plant response rating, Morningglory [9, 13] | Plant response rating, Morningglory [9, 19] | Barnyardgrass plant response rating [10, 26]
85: Plant response rating, Blackgrass [3, 25] | Plant response rating, Corn (corn (Zea mays); [18])
55: Plant response rating, Nutsedge, Yellow [1, 18]
